Measurements: patent publication US20240269138A1, “MMP13 AS A THERAPEUTIC TARGET FOR ALLERGIC INFLAMMATORY DISEASES” (The General Hospital Corporation, priority 2021, published 2024)

Tests used:
[1] = test system: HDM-induced allergic airway inflammation; test: HDM-induced allergic airway inflammation (mouse model of asthma), intraperitoneal inhibitor; assay type: in vivo, C57BL/6 mice; conditions: for total BAL leukocyte numbers / histologically detectable changes in the lung tissue sections: 50 mg/kg intraperitoneally on days 19 and 20; for total BAL leukocyte numbers: BAL on day 21, Diff-Quik; for histologically detectable changes in the lung tissue sections: lungs on day 21, H&E and PAS; for effectiveness compared with dexamethasone: inhibitor 50 mg/kg vs dexamethasone 1 mg/kg, intraperitoneally, days 19 and 20; for inflammation in a mouse model of asthma (overall): systemic (intraperitoneal) administration
Method: C57BL/6 mice were subjected to intranasal instillation of control PBS or HDM as in FIGS. 5A-5D. Vehicle (DMSO), dexamethasone (1 mg/kg), and the MMP13 inhibitors CL82198 (MMP13i Inh1; 50 mg/kg) and DB04760 (CAS 544678-85-5; MMP13i Inh2; 50 mg/kg) were administered intraperitoneally (n=3, 3, 4, and 2 per group, respectively) on days 19 and 20. BAL and lungs of PBS- and HDM-challenged mice were prepared for analysis as in FIGS. 5A-5D. (FIG. 6A and FIG. 6B) BAL cells were analyzed by Diff-Quik staining (FIG. 6A). The numbers of total BAL cells and the indicated types of BAL cells were determined from Diff-Quik-stained cell images and are shown as means±SEM (FIG. 6B). *, P<0.05 (two-tailed unpaired Student's t test). (FIG. 6C and FIG. 6D) Lung sections were analyzed by H&E staining (FIG. 6C) and PAS staining (FIG. 6D). Mice were subjected to intranasal instillation of HDM (D. farinae) extract (XPB81D3A25; Stallergenes Greer) in phosphate-buffered saline (PBS) on days 0, 2, 5, 7, 9, 12, 14, 16 and 19. The amounts of HDM extract administered range between 1 μg and 10 μg per animal; the administered amount for each batch was determined by seeking a condition for BAL eosinophils of 2-5×10^5 cells. PBS was instilled as a control. Dexamethasone and MMP13 inhibitors were injected intraperitoneally (1 mg/kg and 50 mg/kg, respectively) on days 19 and 20. BAL and lungs of PBS- and HDM-challenged mice were prepared on day 21 for analysis. Mouse skin and lung tissues were fixed with formalin and embedded in paraffin. Tissue sections were analyzed by hematoxylin and eosin (H&E) and Periodic acid-Schiff (PAS) staining or by immunofluorescence analysis using primary antibodies in conjunction with Alexa Fluor 594- or fluorescein isothiocyanate-conjugated secondary antibodies (Thermo Fisher Scientific) and Hoechst 33342 (Sigma). Primary antibodies specific to the following antigens were used in immunofluorescence analysis after 1:100 to 1:200 dilution: CD3 (SP7; Abcam), MBP (2000-124; Mayo Clinic), and MMP13 (ab39012; Abcam). Cytospins of BAL cells were analyzed by Diff-Quik staining. Data values are expressed as means±SEM. P values were obtained with the unpaired two-tailed Student t test with Welch's correction.

[2] = test system: OVA-induced allergic dermatitis; test: OVA-induced allergic dermatitis (mouse model of atopic dermatitis), topical inhibitor; assay type: in vivo, C57BL/6 mice; conditions: for inflammation in a mouse model of atopic dermatitis (overall): topical administration; for OVA-induced dermal thickening (edema formation) / OVA-induced epidermal thickening / OVA-induced T cell infiltration (CD3+ T cell density) / OVA-induced eosinophil infiltration (MBP+ eosinophil density): topical, 125 μl of 50 mM solution per cm^2 concurrently with OVA challenge, skin on day 21; for OVA-induced dermal thickening (edema formation) / OVA-induced epidermal thickening: H&E; for OVA-induced T cell infiltration (CD3+ T cell density) / OVA-induced eosinophil infiltration (MBP+ eosinophil density): immunostaining
Method: C57BL/6 mice were sensitized to OVA and challenged with control SAL or OVA as in FIGS. 1A-1G. Vehicle (water), the p38α inhibitor SCIO469 (p38αi), and the MMP13 inhibitor DB04760 (CAS 544678-85-5; MMP13i) were administered topically to the challenged skin site (125 μl of 50 mM solution per cm^2; n=10 per group) concurrently with SAL or OVA. SAL- and OVA-challenged skin was prepared for analysis as in FIGS. 1A-1G. (FIGS. 4A-4C) Skin sections were analyzed by H&E staining (FIG. 4A). Epidermal and dermal thickness (FIG. 4B and FIG. 4C, respectively) was determined from H&E-stained skin images and are shown as means±SEM. *, P<0.05; **, P<0.01 (two-tailed unpaired Student's t test). (FIGS. 4D-4G) Skin sections were analyzed by immunostaining/counterstaining for the indicated molecules (FIG. 4D and FIG. 4F). Solid and dotted line, epidermal margins and the epidermal-dermal boundary, respectively. CD3^+ T cell and MBP^+ eosinophil density (FIG. 4E and FIG. 4G, respectively) was determined on the basis of fluorescence signal-bearing cell numbers per image field and is shown as means SEM. **, P<0.01; ***, P<0.001 (two-tailed unpaired Student's t test). For allergen sensitization, OVA (Sigma) and alum adjuvant (Imject; Thermo Fisher Scientific) were combined in saline (0.9% sodium chloride; SAL) to constitute an inoculum (1 mg/ml and 100 mg/ml, respectively) and injected intraperitoneally into mice (200 μl per animal) on day 0 and 7. To elicit dermatitis in OVA-sensitized mice, shaved dorsal skin was subjected to 15 strokes of tape stripping (Tegaderm; 3M) and then challenged with OVA on days 14, 16 and 19. For this epicutaneous challenge, 100 μl of OVA (1 mg/ml in SAL) was applied to cotton gauze (1 cm×1 cm) placed on tape-stripped skin; 100 μl of SAL was applied as a control. For topical administration of p38α and MMP13 inhibitors, 125 μl of inhibitor solution (50 mM) was applied to skin sites concurrently with SAL or OVA. Challenged skin was sampled on day 21 for analysis. Mouse skin and lung tissues were fixed with formalin and embedded in paraffin. Tissue sections were analyzed by hematoxylin and eosin (H&E) and Periodic acid-Schiff (PAS) staining or by immunofluorescence analysis using primary antibodies in conjunction with Alexa Fluor 594- or fluorescein isothiocyanate-conjugated secondary antibodies (Thermo Fisher Scientific) and Hoechst 33342 (Sigma). Primary antibodies specific to the following antigens were used in immunofluorescence analysis after 1:100 to 1:200 dilution: CD3 (SP7; Abcam), MBP (2000-124; Mayo Clinic), and MMP13 (ab39012; Abcam). Cytospins of BAL cells were analyzed by Diff-Quik staining. Data values are expressed as means±SEM. P values were obtained with the unpaired two-tailed Student t test with Welch's correction.

MMP13 = MMP13 (Homo sapiens, UniProt P45452); conditions: fill the S1′ pocket of MMP13 but cannot fit those of other MMPs; cited from earlier work

Compound	total BAL leukocyte numbers [1]	histologically detectable changes in the lung tissue sections [1]	effectiveness compared with dexamethasone [1]	inflammation in a mouse model of asthma (overall) [1]	inflammation in a mouse model of atopic dermatitis (overall) [2]	OVA-induced dermal thickening (edema formation) [2]	OVA-induced epidermal thickening [2]	OVA-induced T cell infiltration (CD3+ T cell density) [2]	OVA-induced eosinophil infiltration (MBP+ eosinophil density) [2]	selectivity for MMP13 over other MMPs (MMP13)
Cc1cc(CNC(=O)c2cc(C(=O)NCc3ccc(F)c(C)c3)ncn2)ccc1F [DB04760]	substantially reduced	prevented	superior to that of dexamethasone	suppresses inflammation	suppresses inflammation	trend of decrease	significantly reduced	significantly reduced	trend of decrease	–
C[C@@H]1CN(Cc2ccc(F)cc2)[C@@H](C)CN1C(=O)c1cc2c(C(=O)C(=O)N(C)C)cn(C)c2cc1Cl [SCIO469]	–	–	–	–	suppresses inflammation	significant decrease	significant decrease	significant decrease	significant decrease	–
O=C(NCCCCN1CCOCC1)c1cc2ccccc2o1 [CL82198]	substantially reduced	prevented	superior to that of dexamethasone	suppresses inflammation	–	–	–	–	–	almost exclusively selective for MMP13
